Assay results from patent US9605027B2, “Polypeptides that bound to IL-23 receptor and inhibit binding of IL-23 and cell signaling thereof” (Medical Diagnostic Laboratories, LLC, priority 2011, dated 2017).
“Also recorded” adds a separate entry of the source. Where two headings read alike, the source gives them in different places. Peptide text beside a SMILES is read from it.

Target: IL-23R pathway in STAT3-Luc reporter DB cells (Homo sapiens, UniProt Q5VWK5)
Test: Cell-based STAT3-Luc reporter DB cell assay (DB-Luc), inhibition of IL-23
Protocol: (§1) The Cignal STAT3 reporter (SA Biosciences, CCS-9028L), designed to measure the transcriptional activity of STAT3 homodimers, was transiently transfected into the DB cells. The stably transfected STAT3-Luc reporter clone was selected using 200 ng/ml of Hygromycin B.
The stably transfected STAT3-Luc reporter DB cells (0.5×10^6) were cultured in 100 μl of RPMI+10% FBS. IL-23 was added to the cells and incubated at 37° C. for 4 hours. Luciferase activity was measured using Dual-Glo luciferase assay system (Promega).
The isolated cyclic polypeptide no. 23.15-Fc fusion protein and cyclic polypeptide no. 23.19 were used in a cell-based assay to measure the IC50 values. The stably transfected STAT3-Luc reporter DB cells (0.5×10^6) were cultured in 100 μl of RPMI+10% FBS. The cells were pre-incubated with different concentration of isolated cyclic polypeptide no. 23.15-Fc fusion protein or polypeptide no. 23.19 for 30 minutes at 37° C. 50 ng/ml of IL-23 was added to the cells and incubated at 37° C. for an additional 4 hours. Luciferase activity was measured using Dual-Glo luciferase assay system (Promega). The IC50 values of isolated cyclic polypeptide no. 23.15-Fc fusion protein and cyclic polypeptide no. 23.19 are 2.5 μM and 2.5 μM respectively.
The isolated peptide no. 7 (SEQ ID NO: 156) and peptide no. 23.19 (SEQ ID NO: 130) (it is a cyclic version of the polypeptide no. 23.15) were used in a cell based assay to compare their inhibitory activity. The stably transfected STAT3-Luc reporter DB cells (0.5×10^6) were cultured in 100 μl of RPMI+10% FBS. The cells were pre-incubated with two different concentrations (10 μM and 2 μM) of isolated peptides for 30 minutes at 37° C. 50 ng/ml of IL-23 was added to the cells and incubated at 37° C. for an additional 4 hours. Luciferase activity was measured using Dual-Glo luciferase assay system (Promega). The inhibitory activity of isolated peptide no. 7 (SEQ ID NO: 156) is better than that of peptide no. 23.19 (SEQ ID NO: 130) (a cyclic version of polypeptide no. 23.15 (SEQ ID NO: 126) (See, FIG. 62).
DB cells express IL-23R on the cell surface. In addition, IL-23 stimulated the DB cells through the activation of STAT3 by phosphorylation (p-STAT3) (Example 7 (Figures. 14 and 15)). Based on these observations, DB cells were used to develop a cell-based assay to measure the inhibitory activity of peptide and peptide-Fc fusion protein in the IL-23R pathway. […]
as §1, with “CCS-9028L), which is” for “CCS-9028L),”, “B. The activity of IL-23R pathway can be measured by the transcriptional activity of STAT3 homodimers. […]” for “B.”

Sequence of IL-23R pathway in STAT3-Luc reporter DB cells (Q5VWK5 24-629 limits assumed): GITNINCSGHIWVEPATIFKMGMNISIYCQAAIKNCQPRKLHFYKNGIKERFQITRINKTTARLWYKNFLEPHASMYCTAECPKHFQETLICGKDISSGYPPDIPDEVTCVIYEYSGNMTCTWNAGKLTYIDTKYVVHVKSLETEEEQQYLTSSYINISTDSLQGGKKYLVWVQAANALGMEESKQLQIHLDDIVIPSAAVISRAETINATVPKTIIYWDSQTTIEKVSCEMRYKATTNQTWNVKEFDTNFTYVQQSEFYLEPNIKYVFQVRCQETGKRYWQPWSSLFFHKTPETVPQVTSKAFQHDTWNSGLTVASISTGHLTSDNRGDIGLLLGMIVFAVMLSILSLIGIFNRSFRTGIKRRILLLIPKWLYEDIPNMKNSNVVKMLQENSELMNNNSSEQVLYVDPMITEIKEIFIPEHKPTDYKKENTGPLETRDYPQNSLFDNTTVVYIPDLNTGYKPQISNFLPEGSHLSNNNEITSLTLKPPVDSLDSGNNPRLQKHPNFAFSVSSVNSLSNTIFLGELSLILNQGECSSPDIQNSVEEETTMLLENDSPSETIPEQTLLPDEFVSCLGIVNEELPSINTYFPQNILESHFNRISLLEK

IC50 (procedure of Example 29, read-out: IC50, cell-based DB-Luc assay) [nM]	IC50 (50 ng/ml IL-23, 4 hours, read-out: IC50, cell-based STAT3-Luc assay) [nM]	SMILES	inhibitory activity in cell-based DB-Luc assay (cyclic vs linear peptides)
342		CSCC[C@@H]1NC(=O)[C@H](CCCCN)NC(=O)[C@H](C)NC(=O)[C@H](C)NC(=O)[C@H](CS)NC(=O)[C@H](CC(N)=O)NC(=O)[C@H](CCCCN)NC(=O)[C@H](CC(C)C)NC(=O)[C@H](Cc2c[nH]c3ccccc23)NC(=O)[C@H](Cc2ccc(O)cc2)NC(=O)[C@H](CC(=O)O)NC(=O)[C@H](C(C)C)NC(=O)[C@H](Cc2c[nH]c3ccccc23)NC(=O)[C@H]([C@@H](C)O)NC1=O [2HT AA] (cyclo(AAKMTWVDYWLKNC))	did not eliminate the inhibitory activity; also recorded: best inhibitory activity
	2500	CSCC[C@@H]1NC(=O)[C@H](C)NC(=O)[C@@H](N)CSSC[C@@H](C(=O)O)NC(=O)[C@H](CCCNC(=N)N)NC(=O)CNC(=O)[C@H](Cc2ccc(O)cc2)NC(=O)[C@H](CC(C)C)NC(=O)[C@H](Cc2c[nH]c3ccccc23)NC(=O)[C@H](Cc2ccc(O)cc2)NC(=O)[C@H](CC(=O)O)NC(=O)[C@H](CCC(N)=O)NC(=O)[C@H](Cc2c[nH]c3ccccc23)NC(=O)[C@H]([C@@H](C)O)NC1=O [23.19]	
